Reference: the supplement of paper PMC10307832

Legend:
Experiment in all cases: relative viability (nuclei count vs DMSO), 5 days (fraction); higher = more cells survive
COR-L23 = test system: COR-L23
Outline: (§1)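 One day after seeding in 1536-well plates, lung cancer cell lines were dosed by pin tool. Dosing was either single-drug or a fixed anchor-drug dose plus five library-drug doses (not always all listed) in √10 steps. After 5 days, nuclei were stained in one fix-and-stain step and counted on 4× images, and relative viability is the nuclei count of treated wells over that of vehicle wells, given as the median of duplicate plates.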

SK-MES-1 = test system: SK-MES-1
Outline: as §1

NCI-H1437 = test system: NCI-H1437
Outline: as §1

NCI-H1648 = test system: NCI-H1648
Outline: as §1

NCI-H1651 = test system: NCI-H1651
Outline: as §1

ChaGo-K-1 = test system: ChaGo-K-1
Outline: as §1

SW 1573 = test system: SW 1573
Outline: as §1

Calu-6 = test system: Calu-6
Outline: as §1

EBC-1 = test system: EBC-1
Outline: as §1

NCI-H1299 = test system: NCI-H1299
Outline: as §1

IA-LM = test system: IA-LM
Outline: as §1

ABC-1 = test system: ABC-1
Outline: as §1

NCI-H1703 = test system: NCI-H1703
Outline: as §1

A549 = test system: A549
Outline: as §1

## O=c1cc(N2CCOCC2)oc2c(-c3cccc4c3sc3ccccc34)cccc12 + Nc1nc2[nH]cc(CCc3ccc(C(=O)N[C@@H](CCC(=O)O)C(=O)O)cc3)c2c(=O)[nH]1 [Pemetrexed] (partner 0.2 µM)
COR-L23; first compound 0.01 µM
  relative viability: 0.189
COR-L23; first compound 0.03162 µM
  relative viability: 0.204
COR-L23; first compound 0.1 µM
  relative viability: 0.203
COR-L23; first compound 0.3162 µM
  relative viability: 0.201
COR-L23; first compound 1 µM
  relative viability: 0.204
SK-MES-1; first compound 0.01 µM
  relative viability: 0.868
SK-MES-1; first compound 0.03162 µM
  relative viability: 0.943
SK-MES-1; first compound 0.1 µM
  relative viability: 0.906
SK-MES-1; first compound 0.3162 µM
  relative viability: 0.821
SK-MES-1; first compound 1 µM
  relative viability: 0.91
NCI-H1437; first compound 0.01 µM
  relative viability: 0.327
NCI-H1437; first compound 0.03162 µM
  relative viability: 0.292
NCI-H1437; first compound 0.1 µM
  relative viability: 0.313
NCI-H1437; first compound 0.3162 µM
  relative viability: 0.314
NCI-H1437; first compound 1 µM
  relative viability: 0.314
NCI-H1648; first compound 0.03162 µM
  relative viability: 0.681
NCI-H1648; first compound 0.1 µM
  relative viability: 0.894
NCI-H1648; first compound 0.3162 µM
  relative viability: 0.667
NCI-H1648; first compound 1 µM
  relative viability: 0.583
NCI-H1651; first compound 0.01 µM
  relative viability: 0.547
NCI-H1651; first compound 0.03162 µM
  relative viability: 0.564
NCI-H1651; first compound 0.1 µM
  relative viability: 0.569
NCI-H1651; first compound 0.3162 µM
  relative viability: 0.552
NCI-H1651; first compound 1 µM
  relative viability: 0.578
ChaGo-K-1; first compound 0.01 µM
  relative viability: 0.267
ChaGo-K-1; first compound 0.03162 µM
  relative viability: 0.249
ChaGo-K-1; first compound 0.1 µM
  relative viability: 0.247
ChaGo-K-1; first compound 0.3162 µM
  relative viability: 0.259
ChaGo-K-1; first compound 1 µM
  relative viability: 0.286
SW 1573; first compound 0.01 µM
  relative viability: 0.847
SW 1573; first compound 0.03162 µM
  relative viability: 0.937
SW 1573; first compound 0.1 µM
  relative viability: 0.824
SW 1573; first compound 0.3162 µM
  relative viability: 0.857
SW 1573; first compound 1 µM
  relative viability: 0.778

## O=c1cc(-c2cccc3c2Sc2ccccc2S3)oc(N2CCOCC2)c1 + CS(=O)(=O)N1CCN(Cc2cc3nc(-c4cccc5[nH]ncc45)nc(N4CCOCC4)c3s2)CC1 [Pictilisib] (partner 1 µM)
COR-L23; first compound 0.08 µM
  relative viability: 0.92
COR-L23; first compound 0.253 µM
  relative viability: 1.36
COR-L23; first compound 0.8 µM
  relative viability: 0.934
COR-L23; first compound 2.53 µM
  relative viability: 0.705
COR-L23; first compound 8 µM
  relative viability: 1.06
SK-MES-1; first compound 0.08 µM
  relative viability: 0.373
SK-MES-1; first compound 0.253 µM
  relative viability: 0.396
SK-MES-1; first compound 0.8 µM
  relative viability: 0.338
SK-MES-1; first compound 2.53 µM
  relative viability: 0.407
SK-MES-1; first compound 8 µM
  relative viability: 0.474
NCI-H1437; first compound 0.08 µM
  relative viability: 0.464
NCI-H1437; first compound 0.253 µM
  relative viability: 0.534
NCI-H1437; first compound 0.8 µM
  relative viability: 0.395
NCI-H1437; first compound 2.53 µM
  relative viability: 0.373
NCI-H1437; first compound 8 µM
  relative viability: 0.37
NCI-H1651; first compound 0.08 µM
  relative viability: 0.512
NCI-H1651; first compound 0.253 µM
  relative viability: 0.857
NCI-H1651; first compound 0.8 µM
  relative viability: 0.546
NCI-H1651; first compound 2.53 µM
  relative viability: 0.59
NCI-H1651; first compound 8 µM
  relative viability: 0.509
Calu-6; first compound 0.08 µM
  relative viability: 0.86
Calu-6; first compound 0.253 µM
  relative viability: 0.882
Calu-6; first compound 0.8 µM
  relative viability: 0.96
Calu-6; first compound 2.53 µM
  relative viability: 0.959
Calu-6; first compound 8 µM
  relative viability: 0.871
EBC-1; first compound 0.08 µM
  relative viability: 0.352
EBC-1; first compound 0.253 µM
  relative viability: 0.469
EBC-1; first compound 0.8 µM
  relative viability: 0.342
EBC-1; first compound 2.53 µM
  relative viability: 0.401
EBC-1; first compound 8 µM
  relative viability: 0.298
NCI-H1299; first compound 0.08 µM
  relative viability: 0.679
NCI-H1299; first compound 0.253 µM
  relative viability: 0.827
NCI-H1299; first compound 0.8 µM
  relative viability: 0.856
NCI-H1299; first compound 2.53 µM
  relative viability: 0.763
NCI-H1299; first compound 8 µM
  relative viability: 0.854
IA-LM; first compound 0.08 µM
  relative viability: 0.278
IA-LM; first compound 0.8 µM
  relative viability: 0.328
IA-LM; first compound 2.53 µM
  relative viability: 0.346
IA-LM; first compound 8 µM
  relative viability: 0.315
ChaGo-K-1; first compound 0.08 µM
  relative viability: 0.649
ChaGo-K-1; first compound 0.253 µM
  relative viability: 0.624
ChaGo-K-1; first compound 0.8 µM
  relative viability: 0.777
ChaGo-K-1; first compound 8 µM
  relative viability: 1.12
SW 1573; first compound 0.08 µM
  relative viability: 0.539
SW 1573; first compound 0.253 µM
  relative viability: 0.554
SW 1573; first compound 0.8 µM
  relative viability: 0.586
SW 1573; first compound 2.53 µM
  relative viability: 0.556
SW 1573; first compound 8 µM
  relative viability: 0.597
ABC-1; first compound 0.08 µM
  relative viability: 0.62
ABC-1; first compound 0.253 µM
  relative viability: 0.739
ABC-1; first compound 0.8 µM
  relative viability: 0.607
ABC-1; first compound 2.53 µM
  relative viability: 0.666
ABC-1; first compound 8 µM
  relative viability: 0.71
NCI-H1703; first compound 0.253 µM
  relative viability: 0.25
NCI-H1703; first compound 0.8 µM
  relative viability: 0.279
NCI-H1703; first compound 2.53 µM
  relative viability: 0.241
NCI-H1703; first compound 8 µM
  relative viability: 0.316
A549; first compound 0.08 µM
  relative viability: 0.542
A549; first compound 0.253 µM
  relative viability: 0.852
A549; first compound 0.8 µM
  relative viability: 0.681
A549; first compound 2.53 µM
  relative viability: 0.481
A549; first compound 8 µM
  relative viability: 0.651
